This is an account of results in patent publication US20090036530A1, “Crystalline acid of lipoxin A4 analogs and method of making” (Bayer Schering Pharma Aktiengesellschaft, priority 2006, published 2009).

Structures are written as SMILES.

This data set in a line: Hygroscopicity study in automated water sorption analyzer (sorption/desorption isotherm). The class given is physicochemical. On the procedure:
Polymorph I of the free acid is transformed above 60% relative humidity into the hydrate. It is hygroscopic and adsorbs at 80% relative humidity approx. 8% moisture, which corresponds to a dihydrate of the substance. The hydration is reversible. Below 40% relative humidity a transformation into polymorph I is observed.
Data collection for the hygroscopicity studies was carried out in an automated water sorption analyzer. Approximately 10 mg of the investigated solid state form of the crystalline acid was exposed to a continuous flow of nitrogen with predetermined and constant relative humidity. The rate of sweep gas was set at 200 cm^3/min. For a basic assay, two full cycles (sorption/desorption) were measured at 25° C. The measurement was started at 0% relative humidity in order to remove surface water. Once the constant mass was achieved, the next humidity was automatically set. The water sorption/desorption was investigated in steps of 10% between 0% and 90% relative humidity under the criteria for initiation of the first step as set forth herein. Additionally, the sorption at about 98% relative humidity was investigated. Data was acquired using the DVSWin software.

On to `O=C(O)COC[C@H](O)[C@H](O)/C=C/C=C/C#C/C=C/[C@H](O)COc1ccc(F)cc1` [hydrate, 2-((2S,3R,4E,6E,10E,12S)-13-(4-fluorophenoxy)-2,3,12-trihydroxytrideca-4,6,10-trien-8-ynyloxy)acetic acid], for which the “relative humidity below which transformation into polymorph I is observed” value (desorption) is reported as “Below 40 % relative humidity”.

`O=C(O)COC[C@H](O)[C@H](O)/C=C/C=C/C#C/C=C/[C@H](O)COc1ccc(F)cc1` [polymorph I, 2-((2S,3R,4E,6E,10E,12S)-13-(4-fluorophenoxy)-2,3,12-trihydroxytrideca-4,6,10-trien-8-ynyloxy)acetic acid]: where the note is “25° C., water sorption”, the “relative humidity above which polymorph I is transformed into the hydrate” value is recorded as “above 60 % relative humidity”. For the same molecule, the moisture adsorbed result (at 80% relative humidity, corresponds to a dihydrate) is “approx. 8%”. Also, the “hygroscopicity (in words)” value (sorption isotherm, FIG. 1) is listed as “hygroscopic”. Besides, the “reversibility of the hydration” value (sorption/desorption cycles) is given as “reversible”.
